Data published in patent US9603364B2 (Dow AgroSciences LLC, priority 2013, dated 2017).

Experiments:
Assay in all cases: General post-emergent herbicidal activity, foliar application
Type in all cases: in vivo
[1] = system: Amaranthus retroflexus L. (pigweed, redroot); details: for pest or weed control at 70 g/ha / pest or weed control at 140 g/ha / pest or weed control at 280 g/ha / pest or weed control at 35 g/ha: Amaranthus retroflexus, 336 h, foliar post-emergent, scored after 14 days, read-out: % Visual Growth Reduction AMARE; for pest or weed control at 70 g/ha: 70 g ai/ha; for pest or weed control at 140 g/ha: 140 g ai/ha; for pest or weed control at 280 g/ha: 280 g ai/ha; for GR80 Value AMARE: calculated by probit analysis, dose for 80% visual injury, may be extrapolated; for pest or weed control at 35 g/ha: 35 g ai/ha
Procedure, shortened: (§1)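 Visual injury ratings on a scale of 0 (none) to 100% (complete kill), taken 14 days after foliar post-emergence treatment of greenhouse plants and compared with untreated plants, were fitted by probit analysis to give GR20, GR50 and GR80 doses; some GR80 values are extrapolated from the slope. Sprays contained crop oil concentrate and surfactant, with rates from the highest down to 1/16×.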

[2] = system: Chenopodium album L. (lambsquarters, common); details: for pest or weed control at 70 g/ha / pest or weed control at 140 g/ha / pest or weed control at 280 g/ha / pest or weed control at 35 g/ha: Chenopodium album, 336 h, foliar post-emergent, scored after 14 days, read-out: % Visual Growth Reduction CHEAL; for pest or weed control at 70 g/ha: 70 g ai/ha; for pest or weed control at 140 g/ha: 140 g ai/ha; for pest or weed control at 280 g/ha: 280 g ai/ha; for GR80 Value CHEAL: calculated by probit analysis, dose for 80% visual injury, may be extrapolated; for pest or weed control at 35 g/ha: 35 g ai/ha
Procedure, shortened: as §1

[3] = system: Echinochloa crus-galli (L.) Beauv. (barnyardgrass); details: for pest or weed control at 70 g/ha / pest or weed control at 140 g/ha / pest or weed control at 280 g/ha / pest or weed control at 35 g/ha: Echinochloa crus-galli, 336 h, foliar post-emergent, scored after 14 days, read-out: % Visual Growth Reduction ECHCG; for pest or weed control at 70 g/ha: 70 g ai/ha; for pest or weed control at 140 g/ha: 140 g ai/ha; for pest or weed control at 280 g/ha: 280 g ai/ha; for GR80 Value ECHCG: calculated by probit analysis, dose for 80% visual injury, may be extrapolated; for pest or weed control at 35 g/ha: 35 g ai/ha
Procedure, shortened: as §1

[4] = system: Euphorbia heterophylla L. (poinsettia, wild); details: for pest or weed control at 70 g/ha / pest or weed control at 140 g/ha / pest or weed control at 280 g/ha / pest or weed control at 35 g/ha: Euphorbia heterophylla, 336 h, foliar post-emergent, scored after 14 days, read-out: % Visual Growth Reduction EPHHL; for pest or weed control at 70 g/ha: 70 g ai/ha; for pest or weed control at 140 g/ha: 140 g ai/ha; for pest or weed control at 280 g/ha: 280 g ai/ha; for GR80 Value EPHHL: calculated by probit analysis, dose for 80% visual injury, may be extrapolated; for pest or weed control at 35 g/ha: 35 g ai/ha
Procedure, shortened: as §1

[5] = system: Helianthus annuus L. (sunflower, common); details: for pest or weed control at 70 g/ha / pest or weed control at 140 g/ha / pest or weed control at 280 g/ha / pest or weed control at 35 g/ha: Helianthus annuus, 336 h, foliar post-emergent, scored after 14 days, read-out: % Visual Growth Reduction HELAN; for pest or weed control at 70 g/ha: 70 g ai/ha; for pest or weed control at 140 g/ha: 140 g ai/ha; for pest or weed control at 280 g/ha: 280 g ai/ha; for GR80 Value HELAN: calculated by probit analysis, dose for 80% visual injury, may be extrapolated; for pest or weed control at 35 g/ha: 35 g ai/ha
Procedure, shortened: as §1

[6] = system: Viola tricolor L. (pansy); details: for pest or weed control at 70 g/ha / pest or weed control at 140 g/ha / pest or weed control at 280 g/ha / pest or weed control at 35 g/ha: Viola tricolor, 336 h, foliar post-emergent, scored after 14 days, read-out: % Visual Growth Reduction VIOTR; for pest or weed control at 70 g/ha: 70 g ai/ha; for pest or weed control at 140 g/ha: 140 g ai/ha; for pest or weed control at 280 g/ha: 280 g ai/ha; for GR80 Value VIOTR: calculated by probit analysis, dose for 80% visual injury, may be extrapolated; for pest or weed control at 35 g/ha: 35 g ai/ha
Procedure, shortened: as §1

[7] = system: Oryza sativa L. (rice); details: Oryza sativa, 336 h, scored after 14 days, read-out: % Visual Growth Reduction ORYSA; for plant injury at 70 g/ha: 70 g ai/ha; for plant injury at 140 g/ha: 140 g ai/ha; for plant injury at 280 g/ha: 280 g ai/ha
Procedure, shortened: (§2)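 Compounds in acetone/DMSO (97:3) diluted into aqueous spray with isopropanol, Atplus 411F crop oil and Triton X-155; top rate plus 1/2×–1/16× serial rates applied to foliage, solvent blank as control. Greenhouse, sub-irrigated; visual injury versus untreated plants scored 0–100% (100 = complete kill) after 14 days.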

[8] = system: Zea mays L. (corn); details: 336 h, scored after 14 days, read-out: % Visual Growth Reduction ZEAMX; for plant injury at 70 g/ha: 70 g ai/ha; for plant injury at 140 g/ha: 140 g ai/ha; for plant injury at 280 g/ha: 280 g ai/ha; for plant injury at 35 g/ha: 35 g ai/ha
Procedure, shortened: as §2

Row | SMILES | pest or weed control at 70 g/ha [1] | pest or weed control at 140 g/ha [1] | pest or weed control at 280 g/ha [1] | GR80 Value AMARE [1] | pest or weed control at 70 g/ha [2] | pest or weed control at 140 g/ha [2] | pest or weed control at 280 g/ha [2] | GR80 Value CHEAL [2] | pest or weed control at 70 g/ha [3] | pest or weed control at 140 g/ha [3] | pest or weed control at 280 g/ha [3] | GR80 Value ECHCG [3] | pest or weed control at 70 g/ha [4] | pest or weed control at 140 g/ha [4] | pest or weed control at 280 g/ha [4] | GR80 Value EPHHL [4] | pest or weed control at 70 g/ha [5] | pest or weed control at 280 g/ha [5] | plant injury at 280 g/ha [7] | plant injury at 280 g/ha [8] | also measured
1 | COC(=O)c1nc(C(F)F)c(Cl)c(N)c1Cl [Compound F7, Methyl 4-amino-3,5-dichloro-6-(difluoromethyl)picolinate] | 75% | 90% | 100% | 84.2 g ai/ha | 0% | 0% | 0% | >280 g ai/ha | 0% | 0% | 0% | >280 g ai/ha | 90% | 100% | 100% | 17.5 g ai/ha | 60% | 90% | 0% | 10% | pest or weed control at 140 g/ha [5]: 80%; GR80 Value HELAN [5]: 145 g ai/ha; pest or weed control at 70 g/ha [6]: 0%; pest or weed control at 140 g/ha [6]: 0%; pest or weed control at 280 g/ha [6]: 0%; GR80 Value VIOTR [6]: >280 g ai/ha; plant injury at 70 g/ha [7]: 0%; plant injury at 140 g/ha [7]: 0%; plant injury at 70 g/ha [8]: 0%; plant injury at 140 g/ha [8]: 0%
2 | C=C(F)c1cc(N)c(Cl)c(C(=O)OC)n1 [Compound F6, methyl 4-amino-3-chloro-6-(1-fluorovinyl)picolinate] | – | – | 40% | – | – | – | 90% | – | – | – | 0% | – | – | – | 60% | – | – | 20% | 0% | 0% | pest or weed control at 280 g/ha [6]: 0%
3 | COC(=O)c1nc(CF)c(F)c(N)c1Cl [Compound F14, Methyl 4-amino-3-chloro-5-fluoro-6-(fluoromethyl)picolinate] | 80% | 90% | 100% | 89.2 g ai/ha | 90% | 100% | 100% | 16.8 g ai/ha | 0% | 15% | 60% | 411 g ai/ha | 100% | 100% | 100% | 53.9 g ai/ha | 90% | 95% | 0% | 45% | pest or weed control at 35 g/ha [1]: 70%; pest or weed control at 35 g/ha [2]: 85%; pest or weed control at 35 g/ha [3]: 0%; pest or weed control at 35 g/ha [4]: 10%; pest or weed control at 35 g/ha [5]: 85%; pest or weed control at 140 g/ha [5]: 95%; GR80 Value HELAN [5]: 18 g ai/ha; pest or weed control at 35 g/ha [6]: 0%; pest or weed control at 70 g/ha [6]: 0%; pest or weed control at 140 g/ha [6]: 50%; pest or weed control at 280 g/ha [6]: 60%; GR80 Value VIOTR [6]: 334 g ai/ha; plant injury at 35 g/ha ([7]; 35 g ai/ha): 0%; plant injury at 70 g/ha [7]: 0%; plant injury at 140 g/ha [7]: 0%; plant injury at 35 g/ha [8]: 0%; plant injury at 70 g/ha [8]: 0%; plant injury at 140 g/ha [8]: 20%
4 | Nc1cc(C(F)F)nc(C(=O)O)c1Cl [Compound F27] | 90% | 100% | 100% | 17.5 g ai/ha | 100% | 100% | 100% | <17.5 g ai/ha | 65% | 80% | 80% | 187 g ai/ha | 100% | 100% | 100% | <17.5 g ai/ha | 100% | 100% | 20% | 60% | pest or weed control at 35 g/ha [1]: 90%; pest or weed control at 35 g/ha [2]: 100%; pest or weed control at 35 g/ha [3]: 0%; pest or weed control at 35 g/ha [4]: 90%; pest or weed control at 35 g/ha [5]: 90%; pest or weed control at 140 g/ha [5]: 100%; GR80 Value HELAN [5]: <17.5 g ai/ha; pest or weed control at 35 g/ha [6]: 80%; pest or weed control at 70 g/ha [6]: 100%; pest or weed control at 140 g/ha [6]: 100%; GR80 Value VIOTR [6]: 59.2 g ai/ha; plant injury at 70 g/ha [7]: 13%; plant injury at 140 g/ha [7]: 15%; plant injury at 35 g/ha [8]: 20%; plant injury at 70 g/ha [8]: 50%; plant injury at 140 g/ha [8]: 60%
